Laboratory results reported in patent publication US20070066627A1, “Hydrazone derivatives for combatting harmful insects and arachnids” (priority 2004, published 2007).

Tests used:
Format in all cases: in vivo
[1] = system: 2-Spotted Spider Mite (tetranychus urticae, OP-Resistant Strain); assay: 2-spotted spider mite test on Sieva lima bean plants; details: 120 h, plants dipped, after 5 days, read-out: mortality compared to untreated controls
Experimental: 2.6 2-Spotted Spider Mite (tetranychus urticae, OP-Resistant Strain)
Sieva lima bean plants with primary leaves expanded to 7-12 cm were infested by placing on each a small piece from an infested leaf (with about 100 mites) taken from the main colony. This was done at about 2 hours before treatment to allow the mites to move over to the test plant to lay eggs. The piece of leaf used to transfer the mites was removed. The newly-infested plants were dipped in the test solution and allowed to dry. The test plants were kept under fluorescent light (24 hour photoperiod) at about 25° C. and 20-40% relative humidity. After 5 days, one leaf was removed and mortality counts were made.

[2] = system: Orchid Thrips (dichromothrips corbetti); assay: Orchid thrips floral-immersion test; details: 96 h, adults, after 4 days, read-out: mortality compared to untreated controls
Experimental: 2.7 Orchid Thrips (dichromothrips corbetti)
Dichromothrips corbetti adults used for bioassay were obtained from a colony maintained continuously under laboratory conditions. For testing purposes, the test compound was diluted to a concentration of 500 ppm (wt compound:vol diluent) in a 1:1 mixture of acetone:water, plus 0.01% Kinetic® surfactant.
Thrips potency of each compound was evaluated by using a floral-immersion technique. Plastic petri dishes were used as test arenas. All petals of individual, intact orchid flowers were dipped into treatment solution for approximately 3 seconds and allowed to dry for 2 hours. Treated flowers were placed into individual petri dishes along with 10-15 adult thrips. The petri dishes were then covered with lids. All test arenas were held under continuous light and a temperature of about 28° C. for duration of the assay. After 4 days, the numbers of live thrips were counted on each flower, and along inner walls of each petri dish. The level of thrips mortality was extrapolated from pretreatment thrips numbers.

[3] = system: Silverleaf Whitefly (bemisia argentifolii); assay: Silverleaf whitefly test on cotton plants; details: 72 h, cotyledons dipped, adults, 3 days after treatment, read-out: mortality compared to untreated controls
Experimental: 2.5 Silverleaf Whitefly (bemisia argentifolii)
(§1) The active compounds were formulated in 50:50 acetone:water and 100 ppm Kinetic® surfactant.
Selected cotton plants were grown to the cotyledon state (one plant per pot). The cotyledons were dipped into the test solution to provide complete coverage of the foliage and placed in a well-vented area to dry. Each pot with treated seedling was placed in a plastic cup and 10 to 12 whitefly adults (approximately 3-5 day old) were introduced. The insects were collected using an aspirator and an 0.6 cm, non-toxic Tygon® tubing (R-3603) connected to a barrier pipette tip. The tip, containing the collected insects, was then gently inserted into the soil containing the treated plant, allowing insects to crawl out of the tip to reach the foliage for feeding. The cups were covered with a reusable screened lid (150 micron mesh polyester screen PeCap from Tetko Inc). Test plants were maintained in the holding room at about 25° C. and 20-40% relative humidity for 3 days avoiding direct exposure to the fluorescent light (24 hour photoperiod) to prevent trapping of heat inside the cup. Mortality was assessed 3 days after treatment of the plants.

[4] = system: Cotton Aphid (aphis gossypii); assay: Cotton aphid test on cotton cotyledons; details: 120 h, cotyledons dipped, after 5 days, read-out: mortality in comparison with untreated controls
From the text: 2.2 Cotton Aphid (aphis gossypii)
as §1
Cotton plants at the cotyledon stage (one plant per pot) were infested by placing a heavily infested leaf from the main colony on top of each cotyledon. The aphids were allowed to transfer to the host plant overnight, and the leaf used to transfer the aphids was removed. The cotyledons were dipped in the test solution and allowed to dry. After 5 days, mortality counts were made.

[5] = system: Southern Armyworm (Spodoptera eridania), 2nd Instar Larvae; assay: Southern armyworm leaf-dip test, 2nd instar larvae; details: foliar, 120 h, observation at 5 days, read-out: mortality in comparison with untreated controls
Experimental: 2.1 Southern Armyworm (Spodoptera eridania), 2nd Instar Larvae
The active compounds were formulated for testing the activity against insects and arachnids as a 10.000 ppm solution in a mixture of 35% acetone and water, which was diluted with water, if needed.
A Sieva lima bean leaf expanded to 78 cm in length is dipped in the test solution with agitation for 3 seconds and allowed to dry in a hood. The leaf is then placed in a 100×10 mm petri dish containing a damp filter paper on the bottom and ten 2nd instar caterpillars. At 5 days, observations are made of mortality, reduced feeding, or any interference with normal molting.

CC(C=NNC(=O)Cc1cccc2ccccc12)=Cc1cccc(F)c1 [Compound 21]
mortality at 300 ppm [1]: > 75%

CC(C=NNC(=O)c1ccc(C)s1)=Cc1ccc(OC(F)F)cc1 [Compound 91]
mortality at 300 ppm [1]: > 75%

O=C(NN=CC=Cc1ccccc1)c1ccc(Cl)s1 [Compound 96]
mortality at 300 ppm [1]: > 75%

CC(C=NNC(=O)c1[nH]cnc1C)=Cc1ccc(Cl)cc1Cl [Compound 138]
mortality at 300 ppm [1]: > 75%

CC(C=NNC(=O)c1[nH]cnc1C)=Cc1cccc(F)c1 [Compound 144]
mortality at 500 ppm [2]: > 95%

CC(C=NNC(=O)c1ccccn1)=Cc1ccccc1 [Compound 156]
mortality at 300 ppm [3]: > 80%
mortality at 300 ppm [4]: > 75%

CC(C=NNC(=O)c1ccc(C)cc1)=Cc1ccccc1 [Compound 183]
mortality at 300 ppm [3]: > 80%
mortality at 300 ppm [1]: > 75%
mortality at 300 ppm [5]: > 80%
